Measured values from patent US8999970B2, “Administration of an anti-obesity compound to individuals with renal impairment” (Arena Pharmaceuticals, Inc., priority 2010, dated 2015).

Tests used:
[1] = Clinical trial APD356-016: plasma and urine pharmacokinetics of lorcaserin, M1 and M5 after a 10 mg dose in subjects with renal impairment; conditions: for tmax: median; for Ae0-120 / fe0-120: urine
In short: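 Single 10 mg lorcaserin dose in subjects grouped by renal function; plasma and urine sampled for lorcaserin, M1 and M5. Groups set by creatinine clearance from ideal body weight, with actual-weight regrouping also summarised; the dialysis subject counted as end-stage renal disease.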

[2] = Preclinical toxicology: M1 and M5 pharmacokinetics after oral administration of lorcaserin, 52 wk, rats
[3] = Preclinical toxicology: M1 and M5 pharmacokinetics after oral administration of lorcaserin, 52 wk, mice
[4] = 10 mg dose, Mild, actual BW groups
[5] = 10 mg dose, Mild, ideal BW groups
[6] = 10 mg dose, Moderate, actual BW groups
[7] = 10 mg dose, Moderate, ideal BW groups
[8] = 10 mg dose, Normal, actual BW groups
[9] = 10 mg dose, Normal, ideal BW groups
[10] = 10 mg dose, Severe N = 1, actual BW groups
[11] = 10 mg dose, Severe, ideal BW groups
[12] = ESRD, 10 mg QD Authentic, Day 1
[13] = Mild, 10 mg QD Authentic, Day 1
[14] = Moderate, 10 mg QD Authentic, Day 1
[15] = Normal, 10 mg QD Authentic, Day 1
[16] = Severe, 10 mg QD Authentic, Day 1
[17] = lorcaserin 10 mg/kg/day oral, F
[18] = lorcaserin 10 mg/kg/day oral, M
[19] = lorcaserin 30 mg/kg/day oral, F
[20] = lorcaserin 30 mg/kg/day oral, M
[21] = lorcaserin 100 mg/kg/day oral, F
[22] = lorcaserin 100 mg/kg/day oral, M
[23] = lorcaserin 25 mg/kg/day oral, F
[24] = lorcaserin 25 mg/kg/day oral, M
[25] = lorcaserin 50 mg/kg/day oral, F
[26] = lorcaserin 50 mg/kg/day oral, M

Structure (SMILES): C[C@H]1CN(C(=O)O[C@@H]2O[C@H](C(=O)O)[C@@H](O)[C@H](O)[C@H]2O)CCc2ccc(Cl)cc21 [Compound M5, N-carbamoyl glucuronide of lorcaserin]
- % AUC Extrapolated ([1]; 10 mg dose, ESRD (Period 1)): 14.7%
- AUC0-inf ([1]; 10 mg dose, ESRD (Period 1)): 11.2 µg·h/mL
- AUC(0-t) ([1]; 10 mg dose, ESRD (Period 1)): 9.53 µg·h/mL
- AUClast ([1]; 10 mg dose, ESRD (Period 1)): 9.53 µg·h/mL
- Cmax ([1]; 10 mg dose, ESRD (Period 1)): 300 ng/mL
- MRTinf ([1]; 10 mg dose, ESRD (Period 1)): 38.6 h
- t1/2z ([1]; 10 mg dose, ESRD (Period 1)): 25.7 h
- tmax ([1]; 10 mg dose, ESRD (Period 1)): 3.00 h
- % AUC Extrapolated ([1]; 10 mg dose, ESRD (Period 2)): 26.9%
- AUC0-inf ([1]; 10 mg dose, ESRD (Period 2)): 11.9 µg·h/mL
- AUC(0-t) ([1]; 10 mg dose, ESRD (Period 2)): 8.24 µg·h/mL
- AUClast ([1]; 10 mg dose, ESRD (Period 2)): 8.24 µg·h/mL
- Cmax ([1]; 10 mg dose, ESRD (Period 2)): 231 ng/mL
- MRTinf ([1]; 10 mg dose, ESRD (Period 2)): 59.1 h
- t1/2z ([1]; 10 mg dose, ESRD (Period 2)): 40.5 h
- tmax ([1]; 10 mg dose, ESRD (Period 2)): 3.10 h
- % AUC0-inf Extrapolated [1, 4]: 14.5%
- AUC0-inf [1, 4]: 1.04 µg·h/mL
- AUClast [1, 4]: 0.914 µg·h/mL
- Cmax [1, 4]: 91.9 ng/mL
- MRTinf [1, 4]: 16.6 h
- T1/2z [1, 4]: 13.5 h
- tmax [1, 4]: 2 h
- % AUC0-inf Extrapolated [1, 5]: 17.7%
- AUC0-inf [1, 5]: 0.583 µg·h/mL
- AUC(0-t) [1, 5]: 0.482 µg·h/mL
- Cmax [1, 5]: 62.4 ng/mL
- MRTinf [1, 5]: 13.5 h
- T1/2z [1, 5]: 10.7 h
- tmax [1, 5]: 2.00 h
- % AUC0-inf Extrapolated [1, 6]: 12.1%
- AUC0-inf [1, 6]: 1.70 µg·h/mL
- AUClast [1, 6]: 1.51 µg·h/mL
- Cmax [1, 6]: 134 ng/mL
- MRTinf [1, 6]: 18.5 h
- T1/2z [1, 6]: 14.4 h
- tmax [1, 6]: 2 h
- % AUC0-inf Extrapolated [1, 7]: 15.6%
- AUC0-inf [1, 7]: 1.10 µg·h/mL
- AUC(0-t) [1, 7]: 0.944 µg·h/mL
- Cmax [1, 7]: 96.4 ng/mL
- MRTinf [1, 7]: 18.5 h
- T1/2z [1, 7]: 15.4 h
- tmax [1, 7]: 2.00 h
- % AUC0-inf Extrapolated [1, 8]: 23.1%
- AUC0-inf [1, 8]: 0.498 µg·h/mL
- AUClast [1, 8]: 0.381 µg·h/mL
- Cmax [1, 8]: 66.2 ng/mL
- MRTinf [1, 8]: 14.2 h
- T1/2z [1, 8]: 11.7 h
- tmax [1, 8]: 2 h
- % AUC0-inf Extrapolated [1, 9]: 26.3%
- AUC0-inf [1, 9]: 0.475 µg·h/mL
- AUC(0-t) [1, 9]: 0.345 µg·h/mL
- Cmax [1, 9]: 70.5 ng/mL
- MRTinf [1, 9]: 14.6 h
- T1/2z [1, 9]: 12.2 h
- tmax [1, 9]: 1.00 h
- % AUC0-inf Extrapolated [1, 10]: 2.59%
- AUC0-inf [1, 10]: 6.48 µg·h/mL
- AUClast [1, 10]: 6.31 µg·h/mL
- Cmax [1, 10]: 214 ng/mL
- MRTinf [1, 10]: 33.4 h
- T1/2z [1, 10]: 23.1 h
- tmax [1, 10]: 4 h
- % AUC0-inf Extrapolated [1, 11]: 8.46%
- AUC0-inf [1, 11]: 2.47 µg·h/mL
- AUC(0-t) [1, 11]: 2.29 µg·h/mL
- Cmax [1, 11]: 153 ng/mL
- MRTinf [1, 11]: 20.0 h
- T1/2z [1, 11]: 14.9 h
- tmax [1, 11]: 2.50 h
- Ae0-120 [1, 4]: 7470 µg
- fe0-120 [1, 4]: 0.417
- Ae0-120 [1, 5]: 7160 µg
- fe0-120 [1, 5]: 0.399
- Ae0-120 [1, 6]: 6480 µg
- fe0-120 [1, 6]: 0.361
- Ae0-120 [1, 7]: 8000 µg
- fe0-120 [1, 7]: 0.446
- Ae0-120 [1, 8]: 8210 µg
- fe0-120 [1, 8]: 0.458
- Ae0-120 [1, 9]: 8540 µg
- fe0-120 [1, 9]: 0.476
- Ae0-120 [1, 10]: 6720 µg
- fe0-120 [1, 10]: 0.375
- Ae0-120 [1, 11]: 6300 µg
- fe0-120 [1, 11]: 0.351
- Amount in the body cleared during a standard 4-hour hemodialysis procedure ([1]; ESRD): Approximately 18%
- Hemodialysis extraction ratio ([1]; ESRD): 18.4%
- Removal by hemodialysis ([1]; ESRD): partially removed
- AUC24 hr [1, 12]: 9530 ng·h/mL
- Cmax [1, 12]: 300 ng/mL
- t1/2 [1, 12]: 25.7 h
- AUC24 hr [1, 13]: 482 ng·h/mL
- Cmax [1, 13]: 62.4 ng/mL
- t1/2 [1, 13]: 10.7 h
- AUC24 hr [1, 14]: 944 ng·h/mL
- Cmax [1, 14]: 96.4 ng/mL
- t1/2 [1, 14]: 15.4 h
- AUC24 hr [1, 15]: 345 ng·h/mL
- Cmax [1, 15]: 70.5 ng/mL
- t1/2 [1, 15]: 12.2 h
- AUC24 hr [1, 16]: 2290 ng·h/mL
- Cmax [1, 16]: 153 ng/mL
- t1/2 [1, 16]: 14.9 h
- Exposure (Geometric Mean Ratio for AUCinf) increase compared to normal subjects ([1]; mild (CLcr=51-80 mL/min)): 1.2 fold
- Terminal half-life prolonged by ([1]; mild renal impairment): 0%
- Exposure (Geometric Mean Ratio for AUCinf) increase compared to normal subjects ([1]; moderate (CLcr=31-50 mL/min)): 2.3 fold
- Terminal half-life prolonged by ([1]; moderate renal impairment): 26%
- Fractional excretion ([1]; normal renal function): 48%
- Exposure (Geometric Mean Ratio for AUCinf) increase compared to normal subjects ([1]; severe (CLcr=5-30 mL/min)): 5.2 fold
- Fractional excretion ([1]; severe renal impairment): 35%
- Terminal half-life prolonged by ([1]; severe renal impairment): 22%
- Highest individual AUC0-inf in a subject not on hemodialysis ([1]; subject 3140-010, creatinine clearance 9.9 mL/min): 6.48 µg·h/mL
- Highest observed Cmax in the clinical study ([1]; subject with ESRD (#3140-505)): 520 ng/mL
- Highest AUC0-inf overall ([1]; subject with ESRD on hemodialysis): 20.8 µg·h/mL
- AUC0-inf [2, 17]: 0.349 µg·h/mL
- AUClast [2, 17]: 0.273 µg·h/mL
- Cmax [2, 17]: 0.0538 µg/mL
- tmax [2, 17]: 30 min
- AUC0-inf [2, 18]: 0.602 µg·h/mL
- AUClast [2, 18]: 0.550 µg·h/mL
- Cmax [2, 18]: 0.178 µg/mL
- tmax [2, 18]: 60 min
- AUC0-inf [2, 19]: 1.96 µg·h/mL
- AUClast [2, 19]: 1.62 µg·h/mL
- Cmax [2, 19]: 0.337 µg/mL
- tmax [2, 19]: 60 min
- AUC0-inf [2, 20]: 3.1 µg·h/mL
- AUClast [2, 20]: 3.07 µg·h/mL
- Cmax [2, 20]: 0.559 µg/mL
- tmax [2, 20]: 30 min
- AUC0-inf [2, 21]: 12.8 µg·h/mL
- AUClast [2, 21]: 11.1 µg·h/mL
- Cmax [2, 21]: 1.20 µg/mL
- tmax [2, 21]: 120 min
- AUC0-inf [2, 22]: 16.5 µg·h/mL
- AUClast [2, 22]: 14.9 µg·h/mL
- Cmax [2, 22]: 2.03 µg/mL
- tmax [2, 22]: 30 min
- AUC0-inf ([3]; lorcaserin 5 mg/kg/day oral, F): 0.201 µg·h/mL
- AUClast ([3]; lorcaserin 5 mg/kg/day oral, F): 0.184 µg·h/mL
- Cmax ([3]; lorcaserin 5 mg/kg/day oral, F): 0.100 µg/mL
- tmax ([3]; lorcaserin 5 mg/kg/day oral, F): 30 min
- AUC0-inf ([3]; lorcaserin 5 mg/kg/day oral, M): 0.178 µg·h/mL
- AUClast ([3]; lorcaserin 5 mg/kg/day oral, M): 0.134 µg·h/mL
- Cmax ([3]; lorcaserin 5 mg/kg/day oral, M): 0.0983 µg/mL
- tmax ([3]; lorcaserin 5 mg/kg/day oral, M): 30 min
- AUClast [3, 23]: 1.21 µg·h/mL
- Cmax [3, 23]: 0.431 µg/mL
- tmax [3, 23]: 30 min
- AUClast [3, 24]: 1.84 µg·h/mL
- Cmax [3, 24]: 0.590 µg/mL
- tmax [3, 24]: 30 min
- AUC0-inf [3, 25]: 3.26 µg·h/mL
- AUClast [3, 25]: 3.23 µg·h/mL
- Cmax [3, 25]: 0.824 µg/mL
- tmax [3, 25]: 30 min
- AUC0-inf [3, 26]: 3.47 µg·h/mL
- AUClast [3, 26]: 3.42 µg·h/mL
- Cmax [3, 26]: 1.00 µg/mL
- tmax [3, 26]: 30 min
